Results as given in PubChem BioAssay (NCI).
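Values below derive from 48-hour exposures of cells grown in 96-well plates, with endpoints linearly interpolated between the two concentrations bracketing the appropriate inhibition level. The concentration for full growth arrest is given as TGI.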

How the values were obtained:
Assay in all cases: inhibition of tumour cell growth, NCI panel, 48 h
OVCAR-3 ovarian = tested on: OVCAR-3 ovarian
EKVX NSCLC = tested on: EKVX NSCLC
NCI-H522 lung = tested on: NCI-H522 lung
OVCAR-4 ovarian = tested on: OVCAR-4 ovarian
T-47D breast = tested on: T-47D breast
BT-549 breast = tested on: BT-549 breast
NCI/ADR-RES ovarian = tested on: NCI/ADR-RES ovarian
OVCAR-5 ovarian = tested on: OVCAR-5 ovarian
OVCAR-8 ovarian = tested on: OVCAR-8 ovarian
NCI-H23 lung = tested on: NCI-H23 lung
HS 578T breast = tested on: HS 578T breast
ACHN renal = tested on: ACHN renal

Row | Compound | TGI (OVCAR-3 ovarian) [µM] | TGI (EKVX NSCLC) [µM] | TGI (NCI-H522 lung) [µM] | TGI (OVCAR-4 ovarian) [µM] | TGI (T-47D breast) [µM] | TGI (BT-549 breast) [µM] | TGI (NCI/ADR-RES ovarian) [µM] | TGI (OVCAR-5 ovarian) [µM] | TGI (OVCAR-8 ovarian) [µM] | TGI (NCI-H23 lung) [µM] | TGI (HS 578T breast) [µM] | TGI (ACHN renal) [µM]
1 | N#CC1=C(N2CCOCC2)CCC1 | > 100 | > 100 | > 100 | > 100 | > 100 | > 100 | > 100 | > 100 | > 100 | > 100 | > 100 | > 100
2 | CCOC(=O)Oc1cc2c(ccn2C)c2c1c1ccccc1n2C(=O)OCC | > 100 | > 100 | > 100 | > 100 | > 100 | > 100 | > 100 | > 100 | > 100 | > 100 | > 100 | > 100
3 | CC1(C)N=C(N)N=C(N)N1c1cccc(OCc2cccc([N+](=O)[O-])c2)c1 | > 73.9 | > 100 | > 100 | > 100 | > 89.1 | > 100 | > 100 | > 100 | > 100 | > 100 | > 100 | > 100
4 | COc1ccc(-n2cnc3c(NC(C)(C)C(=O)O)ncnc32)cc1 | > 100 | > 100 | – | > 100 | > 100 | > 100 | > 100 | > 100 | > 100 | > 100 | > 100 | > 100
5 | O=C1CCSc2c(cnc3ccccc23)N1 | > 100 | > 100 | > 100 | > 100 | > 100 | > 100 | > 100 | > 100 | > 100 | > 100 | > 100 | > 100
6 | COC(=O)/C(C#N)=C(\Nc1ccccc1)N1CCCCC1 | > 100 | > 100 | > 100 | > 100 | > 100 | > 100 | > 100 | > 100 | > 100 | > 100 | > 100 | > 100
7 | NC(=O)NC(=O)c1ccc(NC(=O)CBr)cc1 | 2.74 | 5.41 | 0.277 | – | 4.01 | 4.7 | 7.53 | 7.34 | 8.38 | 4.59 | 7.37 | 2.91
8 | COc1cc(/C=N/NC2=NCCCN2)ccc1O | > 100 | > 100 | > 100 | > 100 | > 100 | > 100 | > 100 | > 100 | > 100 | > 100 | > 100 | > 100
9 | CC(C)=CCC[C@@H](C)C1=C(Nc2ccccc2)C(O)=C(C)C(=O)C1=O | 8.97 | > 39.4 | 16.5 | > 43.5 | 32.3 | 23.1 | 3.96 | > 43.5 | 23.5 | 12.9 | 9.5 | –
10 | CNC(=S)NNC1=NCCCCN1 | > 100 | > 100 | > 100 | > 100 | > 100 | > 100 | > 100 | > 100 | > 100 | > 100 | > 100 | > 100
11 | CCCCCNC1=CC(=O)c2ccccc2C1=O | 65 | > 100 | 44.3 | > 100 | > 82.6 | 46 | > 100 | > 100 | 51.8 | 58.3 | > 81.3 | > 100
12 | C#C[C@]1(O)CC[C@H]2[C@@H]3CCC4=C/C(=N\OCCN5CCCC5)CC[C@]4(C)[C@H]3CC[C@@]21C | 27.1 | 38.1 | 12 | > 62.1 | 60.4 | 43.6 | 31.5 | 50.3 | 40.7 | 31.3 | 21.7 | 47.2
13 | Cc1nc2ccc(N=NN(C)C)cc2[nH]1 | > 100 | > 100 | > 100 | > 100 | > 100 | > 100 | > 100 | > 100 | > 100 | – | > 100 | > 100
14 | COc1ccc2c(c1)/C(=C\c1cccc(/C=C3/C(=O)Nc4ccc(OC)cc43)n1)C(=O)N2 | 5.38 | > 40.3 | 6.9 | 3.28 | 2.53 | 6.39 | > 58.8 | 3.74 | > 25.4 | 2.6 | > 46.9 | 5.41
15 | O=C1c2cccnc2C(=O)c2c1nc1ccccc1c2-c1cncc(-c2c3c(nc4ccccc24)C(=O)c2cccnc2C3=O)c1 | 3.22 | 1.73 | 0.784 | 1.91 | 2.91 | 1.52 | 2.1 | 5.9 | 0.618 | 0.944 | 2.27 | 0.437
16 | COc1cc(C2S/C(=C/c3ccccc3)C(=O)N2c2ccc([N+](=O)[O-])cc2)cc(OC)c1OC (centres undefined) | > 100 | > 100 | > 100 | > 100 | > 100 | > 100 | > 100 | > 100 | > 100 | > 100 | > 100 | > 100
17 | COc1ccc(CCN(C)C(=O)CC(C#N)(c2ccccc2)c2ccc(OC)c(OC)c2)cc1OC (centres undefined) | > 100 | > 100 | > 100 | > 100 | > 100 | > 100 | > 100 | > 100 | > 100 | > 100 | > 100 | > 100
18 | CC(C)(CCCCC(C)(C)NCC1COc2ccccc2O1)NCC1COc2ccccc2O1 (centres undefined) | > 10 | > 10 | > 10 | > 10 | > 10 | > 10 | > 10 | > 10 | > 10 | > 10 | > 10 | > 10
19 | CC(C)C(Cl)CC/C(CBr)=C(\Cl)CCl (centres undefined) | 10.4 | 34 | 2.49 | 7.34 | 3.29 | 3.99 | > 79.1 | 31.2 | 4.65 | 8.65 | 11.8 | 29.6
